From ChEMBL document CHEMBL1152360, “Structure-activity relationships of memoquin: Influence of the chain chirality in the multi-target mechanism of action” (Bioorg Med Chem Lett, 2009) come the findings set out here.

SMILES strings stand for the structures.

Test [1] has as its target T1, Acetylcholinesterase (Homo sapiens, UniProt P22303). The test can be described thus: Inhibition of human AChE-induced amyloid beta (1-40) aggregation by thioflavin T fluorescence-based assay.
Test [2] has as its target Amyloid-beta precursor protein (Homo sapiens) (UniProt P05067). Put plainly: Inhibition of self-assembly of human amyloid beta (1-42) aggregation at 10 uM by thioflavin T-based fluorometric assay.
Test [3] addresses T1, Acetylcholinesterase. Put plainly: Inhibition of human recombinant AChE preincubated 20 mins before substrate addition by Ellman method. On the technique in general: In Ellman's method for cholinesterases, released thiocholine reacts with DTNB.
The target of test [4] is Cholinesterases; ACHE & BCHE (Homo sapiens) (UniProt P06276+P22303). Put plainly: Selectivity ratio of IC50 for human recombinant BchE to IC50 for human recombinant AChE.
Sequence of Cholinesterases; ACHE & BCHE (Homo sapiens) (P06276 whole entry, looked up): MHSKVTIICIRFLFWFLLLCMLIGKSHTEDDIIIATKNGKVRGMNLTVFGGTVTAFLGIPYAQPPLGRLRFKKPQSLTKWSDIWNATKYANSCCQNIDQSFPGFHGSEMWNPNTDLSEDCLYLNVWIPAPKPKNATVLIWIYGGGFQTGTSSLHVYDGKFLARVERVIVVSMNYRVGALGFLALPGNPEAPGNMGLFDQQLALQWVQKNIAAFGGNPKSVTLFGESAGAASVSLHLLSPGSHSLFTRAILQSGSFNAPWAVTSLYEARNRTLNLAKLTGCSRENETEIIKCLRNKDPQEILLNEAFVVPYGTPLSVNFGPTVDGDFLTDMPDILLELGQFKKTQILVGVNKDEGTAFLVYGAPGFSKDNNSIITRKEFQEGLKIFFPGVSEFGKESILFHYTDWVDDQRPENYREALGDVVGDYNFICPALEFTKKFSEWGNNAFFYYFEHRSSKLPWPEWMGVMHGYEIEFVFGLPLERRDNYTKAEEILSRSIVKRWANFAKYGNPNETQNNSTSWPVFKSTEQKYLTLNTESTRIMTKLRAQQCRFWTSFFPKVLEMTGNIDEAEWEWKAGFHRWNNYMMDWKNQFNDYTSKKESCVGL
Sequence of Cholinesterases; ACHE & BCHE (Homo sapiens) (P22303 whole entry, looked up): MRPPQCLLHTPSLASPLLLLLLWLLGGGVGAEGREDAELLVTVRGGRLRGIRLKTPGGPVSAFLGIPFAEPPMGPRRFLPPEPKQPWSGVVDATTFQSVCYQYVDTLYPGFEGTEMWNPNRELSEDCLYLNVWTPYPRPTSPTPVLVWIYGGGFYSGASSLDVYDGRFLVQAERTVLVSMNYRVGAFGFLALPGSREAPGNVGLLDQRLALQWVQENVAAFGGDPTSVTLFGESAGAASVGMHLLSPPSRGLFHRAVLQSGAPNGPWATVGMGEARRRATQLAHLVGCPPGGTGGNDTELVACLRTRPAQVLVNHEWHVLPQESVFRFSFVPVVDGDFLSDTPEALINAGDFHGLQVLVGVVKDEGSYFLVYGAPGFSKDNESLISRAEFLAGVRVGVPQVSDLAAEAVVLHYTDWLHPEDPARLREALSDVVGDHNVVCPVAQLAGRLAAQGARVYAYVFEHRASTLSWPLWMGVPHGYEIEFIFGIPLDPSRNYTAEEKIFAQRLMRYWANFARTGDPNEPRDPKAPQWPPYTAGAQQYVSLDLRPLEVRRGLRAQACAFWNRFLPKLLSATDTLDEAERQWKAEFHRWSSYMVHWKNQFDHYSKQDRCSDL
The target of the next test is Cholinesterase (Homo sapiens, UniProt P06276). Put plainly: Inhibition of human recombinant BchE preincubated 20 mins before substrate addition by Ellman method.
Sequence of Cholinesterase (P06276 whole entry): as the sequence (P06276 whole entry, looked up) above

By IC50 is commonly meant the concentration at which inhibition is half-maximal. One may read the inhibition as the share of the control response that was lost under treatment. Lower therefore signals little suppression.

T1 sequence (P22303 whole entry): as the sequence (P22303 whole entry, looked up) above
Sequence of Amyloid-beta precursor protein (Homo sapiens) (P05067 whole entry): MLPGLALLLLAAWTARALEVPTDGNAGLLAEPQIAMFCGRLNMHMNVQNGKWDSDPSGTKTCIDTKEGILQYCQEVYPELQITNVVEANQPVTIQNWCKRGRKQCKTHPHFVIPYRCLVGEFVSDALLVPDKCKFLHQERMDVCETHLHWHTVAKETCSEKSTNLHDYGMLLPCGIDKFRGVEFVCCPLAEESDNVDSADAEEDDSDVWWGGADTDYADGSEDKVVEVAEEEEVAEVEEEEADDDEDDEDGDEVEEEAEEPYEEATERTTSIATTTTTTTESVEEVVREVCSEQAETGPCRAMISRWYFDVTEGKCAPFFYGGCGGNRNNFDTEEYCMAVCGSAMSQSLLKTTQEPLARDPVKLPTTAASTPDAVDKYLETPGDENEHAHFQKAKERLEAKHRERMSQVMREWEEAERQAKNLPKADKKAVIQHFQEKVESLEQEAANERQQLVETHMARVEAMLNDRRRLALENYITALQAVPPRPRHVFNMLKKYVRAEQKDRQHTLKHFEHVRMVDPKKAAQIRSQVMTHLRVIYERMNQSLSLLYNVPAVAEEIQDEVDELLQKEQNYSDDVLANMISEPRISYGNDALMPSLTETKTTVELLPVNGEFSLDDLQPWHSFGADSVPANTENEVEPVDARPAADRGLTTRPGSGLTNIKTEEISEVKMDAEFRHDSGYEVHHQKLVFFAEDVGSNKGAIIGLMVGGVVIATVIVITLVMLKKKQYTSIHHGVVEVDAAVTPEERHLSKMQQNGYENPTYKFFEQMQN

For the compound `CCN(CCCCCCNC1=CC(=O)C(NCCCCCCN(CC)[C@@H](C)c2ccccc2OC)=CC1=O)[C@@H](C)c1ccccc1OC`, the IC50 against Acetylcholinesterase [1] turned out to be 7.91 µM; at Acetylcholinesterase [3], 0.00403 µM; on Cholinesterase, 0.958 µM. The inhibition in test [2] came to 62.3%. Besides, in test [4], the Ratio IC50 amounted to 238.
Taken in the same sequence, the figures for `CCN(CCCCCCNC1=CC(=O)C(NCCCCCCN(CC)[C@H](C)c2ccccc2OC)=CC1=O)[C@H](C)c1ccccc1OC` were 9.34 µM, 0.0005 µM, 1.48 µM, 63.9% and 2960.
In the case of `CCN(CCCCCCNC1=CC(=O)C(NCCCCCCN(CC)[C@@H](C)c2ccccc2OC)=CC1=O)[C@H](C)c1ccccc1OC`, the IC50 is 11 µM at Acetylcholinesterase [1], 0.00036 µM on Acetylcholinesterase [3] and 0.982 µM at Cholinesterase. In test [2], this compound showed an inhibition of 63.5%. Also, the Ratio IC50 in test [4] worked out at 2730.
With `CCN(CCCCCCNC1=CC(=O)C(NCCCCCCN(CC)Cc2ccccc2OC)=CC1=O)Cc1ccccc1OC`, the Ratio IC50 in test [4] was determined as 929.
